The values below come from publication PMC6952366 (Scientific Reports, 2020).

Several values for one entry are separate records, joined by “and”; a condition that tells them apart may be missing. Identical values can stand only once. Like-named read-outs stand apart in the source and are kept apart here. Where only a bound is given, the exact number is not on record here.

Series [1] can be described thus: pKa determination by acid titration. It is filed as physicochemical. Conditions: acid titration in water, Gran plot, 4 replicates. Here is the method:
The pKa of each compound was measured by acid titration. […] This procedure was repeated 4 times for each compound.

Series [2] in a line: Octanol-water partition coefficient (logD) at pH 7.4, modified shake flask method. Particulars: pH 7.4, 4 replicates. It is filed as physicochemical. Here is the method:
The octanol-water partition coefficient (logD) at pH 7.4 was determined using a modified version of the shake flask method. Briefly, PBS (900 µL), 1-octanol (900 µL) and a 10 mg/mL aqueous solution of each compound (2 µL) were added to a 2 mL HPLC vial. The compounds were partitioned between the layers via vortexing and centrifuged at 1,000 g for 1 min to allow for phase separation. A portion (10 µL) was taken from each layer (autoinjector was set up to draw volume at two different heights) and analyzed by HPLC. The relative concentration in each phase was determined by integrating the area under each peak and comparing the ratio of the areas from the octanol and aqueous layers. A calibration curve was performed to ensure that the concentrations detected were within the linear range of the detector. This procedure was repeated 4 times for each compound.

In series [3] the target is T1, Shaker K+ channel (Drosophila melanogaster, UniProt P08510, DEL6-46).
T1 construct: expressed in transfected cells; host or cells: Xenopus laevis oocytes injected with in vitro transcribed cRNA (cDNA clone from the Bezanilla laboratory)
Description: cell-based. Particulars: for δ (fractional distance through the membrane electrical field): Woodhull fit of IC50 vs voltage curves. It is filed as cell-based, D. melanogaster. The protocol: K^+ currents were measured in Xenopus oocytes expressing the commonly studied voltage-gated K^+ channel Shaker from D. melanogaster. In order to determine the relative blocking capacity, each drug was applied to the same oocyte at increasing concentrations ranging from 1 to 10,000 μM. Then, the relative current was determined as the ratio between the maximal amplitude of the K^+ current in the absence and in the presence of each drug. […] The Hill equation (Eq. 1) was fitted to the dose-response curves and used to calculate the IC50 for each drug at pH 7.4.
A sample of cDNA clone encoding for Shaker voltage-gated K^+ channel from D. melanogaster with inactivation removed[51] was generously provided by the laboratory of Prof. Francisco Bezanilla at The University of Chicago. The DNA was amplified, linearized with Not I enzyme (New England Biolabs, Inc., Ipswich, MA, USA) and transcribed in vitro using the T7 promoter mMESSAGE cRNA kit (Ambion, Austin, Tex., USA).
Shaker channel was heterologously expressed in Xenopus laevis oocytes. Only mature Xenopus laevis frogs (Aquanimals SA de CV, Queretaro, Mexico) were used as oocytes suppliers. A volume of 1−3 mL from the ovary lobes was extracted via survival surgery under anesthesia. All methods involving live animals were performed in accordance with relevant guidelines and regulations and with the approval of the Comité Institucional del Cuidado y Uso de Animales en el Laboratorio (CICUAL-CUCEI-UDG). Subsequently, oocytes were isolated with the treatment of collagenase type II (Worthington Biochemical Corp., NJ, USA) under mechanical agitation. After the isolation with collagenase, each oocyte was injected with 15–25 ng of RNA encoding for the Shaker ion channel and incubated for 8–12 h at 17 °C in a Standard Oocytes Saline (SOS) solution containing (in mM): 100 NaCl, 1 MgCl2, 10 HEPES, 2 KCl and 1.8 CaCl2 with 50 μg/mL gentamycin at pH 7.5.
All chemical compounds for this study were acquired from Sigma-Aldrich (Sigma-Aldrich Co., St. Louis, MO, USA) and Chem-Impex International (Chem-Impex International, Inc. Wood Dael, IL, USA) unless otherwise indicated. Electrophysiology measurements were conducted using the methodology of cut-open oocyte voltage clamp (COVC)[52]. For COVC procedures, the internal recording solution contained (in mM): 120 KOH, 2 EGTA, and 20 HEPES. The external recording solution was composed (in mM) by: 12 KOH, 2 Ca(OH)2, 105 NMDG (N-methyl-D-glucamine)-methylsufonate (MES), and 20 mM HEPES. For measurements carried out at pH of 6.8 and 7.4, the pH of both solutions was adjusted with MES. For measurements carried out at pH = 9.1, HEPES was replaced by 2-(cyclohexylamino)ethanesulfonic acid (CHES).
K^+ currents were recorded in the same oocyte, first in absence (IK) and then in presence of each drug (II). IK was elicited by depolarizing the oocyte membrane with a voltage protocol that consisted in steps of 50 ms from −100 to 50 mV in increments of 10 mV. […] The integrity and stability of each oocyte were continuously monitored throughout the experiment.
Ionic currents were amplified and digitized with the Oocyte Clamp Amplifier CA-1A (Dagan Corporation, Minneapolis, MN, USA) and the USB-1604-HS-2AO Multifunction Card (Measurement Computing, Norton, MA, USA), respectively, and controlled with the GpatchMC64 program (Department of Anesthesiology, UCLA, Los Angeles, CA, USA) via a PC. Data were sampled at 100 kHz and filtered at 10 kHz. All the experiments were performed at room temperature (21–23 °C).
Ion currents recordings were analyzed with Analysis (Department of Anesthesiology, UCLA, Los Angeles, CA, USA) and OriginPro 8 (OriginLab Corporation, Northampton, MA, USA.) programs.
Mean values of data ± standard deviation (s.d.) are given or plotted and the number of experiments is denoted by n. The 95% of confidence interval (IC95) is denoted as [Upper limit-Lower limit]; where Upper limit = 10^(logIC50+s.d) and Lower limit = 10^(logIC50−s.d) .

The conditions of series [4]: cited from earlier work.
Setting [5] is: IC50, 40 mV, pH 7.4, Hill equation fit.
Setting [6] is: IC50 at V = 0 mV (Woodhull parameter), fit of IC50 vs voltage curves (10 to 50 mV) with Woodhull model, mean ± SD.
The mark [7] stands for this setting: IC50 increase with voltage (from lowest to highest voltage), over the voltage values studied, Fig. 4 shows 10 to 50 mV.
Setting [8] is: 1-octanol/PBS, pH 7.4, octanol/water (PBS), read-out: logD.
Setting [9] is: 0 mV, pH 6.8, Hill fit, read-out: IC50.
Setting [10] is: 0 mV, pH 7.4, Hill fit, read-out: IC50.
[11] abbreviates: 0 mV, pH 9.1, Hill fit, read-out: IC50.
Setting [12] is: 40 mV, pH 7.4, Hill equation fit, read-out: IC50.
[13] abbreviates: fit of IC50 vs voltage curves (10 to 50 mV) with Woodhull model, mean ± SD, read-out: IC50 at V = 0 mV (Woodhull parameter).
Where [14] appears, read: over the voltage values studied, Fig. 4 shows 10 to 50 mV, read-out: IC50 increase with voltage (from lowest to highest voltage).

T1 sequence (P08510 other isoform, or with tags, fused parts or gaps DEL6-46): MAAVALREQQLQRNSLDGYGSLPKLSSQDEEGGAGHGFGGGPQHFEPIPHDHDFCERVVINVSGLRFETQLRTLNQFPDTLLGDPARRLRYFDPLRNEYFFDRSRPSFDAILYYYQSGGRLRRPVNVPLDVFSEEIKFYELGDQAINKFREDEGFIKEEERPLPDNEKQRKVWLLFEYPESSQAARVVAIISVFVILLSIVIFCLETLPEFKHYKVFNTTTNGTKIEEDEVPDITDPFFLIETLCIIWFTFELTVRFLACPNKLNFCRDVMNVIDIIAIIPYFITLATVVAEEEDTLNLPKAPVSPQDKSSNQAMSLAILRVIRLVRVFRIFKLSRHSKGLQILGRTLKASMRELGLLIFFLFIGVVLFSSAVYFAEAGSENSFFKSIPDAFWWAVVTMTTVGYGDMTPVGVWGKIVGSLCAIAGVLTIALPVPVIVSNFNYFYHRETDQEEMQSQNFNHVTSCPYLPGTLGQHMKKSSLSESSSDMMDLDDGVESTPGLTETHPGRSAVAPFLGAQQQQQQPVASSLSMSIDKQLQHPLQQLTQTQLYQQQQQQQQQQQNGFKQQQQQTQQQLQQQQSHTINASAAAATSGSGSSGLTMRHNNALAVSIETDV

On to `Cc1cnccc1N` [3Me4AP, 3-methyl-4-aminopyridine], for which the pKa was 9.82 ± 0.06 in series [1] and over 9 in series [1] (water, read-out: pKa). The logD in series [2] (octanol/water (PBS)) was −1.23 and −1.232 ± 0.008. The IC50 was 66 µM in series [3] (IC50, 0 mV, pH 6.8, Hill fit); 39 µM in series [3] (IC50, 0 mV, pH 7.4, Hill fit); 15 µM in series [3] (IC50, 0 mV, pH 9.1, Hill fit); 40 µM in series [3] (setting [5]); 21 ± 1 µM in series [3] (setting [6]); 37 to 50 µM in series [3] (setting [7]). In addition, the “δ (fractional distance through the membrane electrical field)” value in series [3] is 0.43 ± 0.10.

Take `Nc1ccnc(C(F)(F)F)c1` [2CF34AP, 2-trifluoromethyl-4-aminopyridine]: the pKa is 7.0 ± 0.4 in series [1] and under 8 in series [1] (water, read-out: pKa). For the same compound, the logD in series [2] (setting [8]) turned out to be 1.48; in series [2] (octanol/water (PBS)), 0.906 ± 0.006. Further, the IC50 in series [3] (setting [9]) turned out to be 10400 µM; in series [3] (setting [10]) it was 11900 µM; in series [3] (setting [11]), 18200 µM; in series [3] (setting [12]), 12800 µM. Also, the “blocking of the channel” value in series [3] (at 10 mM, pH 7.4, 40 mV) was ~ 50%.

Take `COc1cnccc1N` [3MeO4AP, 3-methoxy-4-aminopyridine]: the pKa in series [1] is 9.18 ± 0.02; in series [1] (water, read-out: pKa), over 9. The log distribution coefficient (logD) in series [2] (setting [8]) is -0.76 ± 0.03. Besides, the IC50 in series [3] (setting [9]) was 357 µM; in series [3] (setting [10]), 355 µM; in series [3] (setting [11]), 492 µM; in series [3] (setting [12]), 807 µM; in series [3] (setting [13]), 329 ± 17 µM; in series [3] (setting [14]), 310 to 992 µM. Further, in series [3], the “δ (fractional distance through the membrane electrical field)” value turned out to be 0.56 ± 0.02.

In the case of `Nc1ccncc1C(F)(F)F` [3CF34AP, 3-trifluoromethyl-4-aminopyridine], the pKa in series [1] is 7.17 ± 0.04; in series [1] (water, read-out: pKa), under 8. Further, the results for the pH-dependent lipophilicity (logD) in series [2] (setting [8]) and in series [2] (octanol/water (PBS)) were 0.91 and 1.484 ± 0.009, respectively. Further, the IC50 is 249 µM in series [3] (IC50, 0 mV, pH 6.8, Hill fit); 690 µM in series [3] (IC50, 0 mV, pH 7.4, Hill fit); 2190 µM in series [3] (IC50, 0 mV, pH 9.1, Hill fit); 1060 µM in series [3] (setting [5]); 516 ± 51 µM in series [3] (setting [6]); 690 to 1150 µM in series [3] (setting [7]). Also, the “δ (fractional distance through the membrane electrical field)” value in series [3] is reported as 0.46 ± 0.10.

For the compound `Nc1ccncc1` [4AP, 4-aminopyridine, reference compound], the pKa in series [1] was 9.58 ± 0.07; in series [1] (water, read-out: pKa) it was over 9. The log distribution coefficient (logD) in series [2] (octanol/water (PBS)) was −1.48 and −1.478 ± 0.014. In addition, the “δ (fractional distance through the membrane electrical field)” value in series [3] is recorded as 0.41 ± 0.08.

Take `Nc1ccncc1F` [3F4AP, 3-fluoro-4-aminopyridine, reference compound]: the pKa in series [1] was 7.65 ± 0.15; in series [1] (water, read-out: pKa), under 8; in series [4], 7.6. Moreover, the values for the log distribution coefficient (logD) in series [2] (setting [8]) and in series [2] (octanol/water (PBS)) were 0.41 and 0.414 ± 0.002, respectively. The IC50 is 82 µM in series [3] (setting [9]); 160 µM in series [3] (setting [10]); 185 µM in series [3] (setting [11]); 244 µM in series [3] (setting [12]); 122 ± 4 µM in series [3] (setting [13]); 160 to 304 µM in series [3] (setting [14]). For the same compound, the “δ (fractional distance through the membrane electrical field)” value in series [3] is 0.46 ± 0.10. In addition, the “potency relative to 4AP” value in series [3] (pH 7.4, 40 mV) is reported as “comparable to 4AP”.

One may read the pKa as the pH at which an ionisable group is half protonated. As a reminder, the logD is the decadic logarithm of the distribution of all forms, ionised or not, between an organic phase and buffer at a given pH. By IC50 is commonly meant the concentration needed to halve the response being measured.
